Assays:
Format in all cases: in vivo, BALB/C mice
[1] = test system: CD8+ T cells of CD3+ T cells; assay: Flow cytometric profiling of tumor draining lymph nodes; settings: tumor draining lymph node, 7 days after randomization
Description: (§1) Hydrogels were administered as suspension in PTP buffer. Some cohorts were further treated with 20 μg human IL-2 (Peprotech, Rocky Hill, N.J.), intraperitoneally (I.P.), twice a day for 5 days. Mice were sacrificed 7 days after randomization (DO). Following sacrifice, tumor draining lymph nodes were isolated from both flanks and were dissociated mechanically to generate a single cell suspension at a cell concentration of 1×10^6 cells per sample. Cell suspensions were centrifuged at 300 g for 5 minutes. Supernatants were discarded and cells were resuspended in FACS buffer with 1 μg/ml Fc-Block and incubated at 4° C. for 10 minutes in the dark. Surface marker antibody mixtures (antibody concentration: 10 μg/mL) in FACS buffer were added to each sample and samples were incubated in the dark at 4° C. for 30 minutes. Cells were centrifuged at 300 g for 5 minutes and supernatants were discarded. Cells were washed and then resuspended with FACS buffer before cytometer collection.
(§2) After collection, FACS data was analyzed using FlowJo Version 10.6.1. Compensation was digitally adjusted using single antibody-stained beads. Samples with less than 90% viability, as determined by LiveDead cell staining, were excluded from the analysis. Cells were defined using the following gating strategy: • 1) Ly-6C^+ antigen presenting cells: FSC-H/FSC-A Singlets/LiveDead^−/CD45^+/CD3^−/CD335^−/Ly-6C^+ • 2) Ly-6C^+ MHCII^+ antigen presenting cells: FSC-H/FSC-A Singlets/LiveDead^−/CD45^+/CD3^−/CD335^−/Ly-6C^+/IA/IE (MHCII)^+ • 3) CD8^+ T cells: FSC-H/FSC-A Singlets/LiveDead^−/CD45^+/CD3^+/CD8 single positive 4) Ly-6C^+ CD8^+ T cells: FSC-H/FSC-A Singlets/LiveDead^−/CD45^+/CD3^+/CD8 single positive/Ly-6C^+

[2] = test system: Ly-6C+ T cells of CD8+ T cells; assay: as above; settings: tumor draining lymph node, 7 days after randomization
Description: as §1, §2

[3] = test system: peripheral blood mononuclear cells (PBMC); assay: PBMC gene expression (qPCR), 6 hours post-treatment
Description: Hydrogels were administered as suspensions in PTP buffer. […] Tumors were excised, weighed and snap frozen. […] For PBMC isolations, approximately 600 μl of whole blood was collected via cardiac puncture. The collected whole blood from each individual mouse was diluted with a 1:1 ratio of pre-warmed PBS supplemented with 2% Fetal Bovine Serum (FBS). Then an equal volume of Histopaque-1083 was added to a new sterile 15 mL conical tube, where the diluted whole blood was layered over the Histopaque-1083. The mixture was then centrifuged at 400 g for 30 minutes. The top plasma layer was discarded, and the white translucent interlayer (mononuclear cells) was carefully transferred to a new sterile centrifuge tube. The mononuclear cells were then washed with PBS supplemented with 2% FBS and then were spun down at 250 g for 10 minutes. […] RNA concentrations were measured using a NanoDrop (ThermoFisher) and then adjusted to […] with RNase-free water. RNA quality was assessed using a NanoDrop (ThermoFisher). […] 200 ng of cDNA was used for quantitative PCR using the RT^2 SYBR Green ROX qPCR Master mix (2X) kit (QIAGEN) following manufacturer's recommendations. […] For each gene, 3 technical replicates were analyzed per biological replicate. Undetermined technical replicate CT values were recorded as zero ΔCT values. 4-5 biological replicates were assessed in total.

Compound: CCOCc1nc2c(N)nc3ccccc3c2n1CC(C)(C)O [Compound 4, Resiquimod]
- Frequency of CD8+ T cells of CD3+ T cells, Mean ([1]; injected right flank): 29.23%
- Frequency of CD8+ T cells of CD3+ T cells, Mean ([1]; uninjected left flank): 29%
- Frequency of Ly-6C+ T cells of CD8+ T cells, Mean ([2]; injected right flank): 53.7%
- Frequency of Ly-6C+ T cells of CD8+ T cells, Mean ([2]; uninjected left flank): 48%
- Il1a Mean (2^ΔΔCT) [3]: 0.41
